Measured values as given in patent publication US20190142832A1, “Marker for Cancer Prognosis and Methods Related Thereto” (National Jewish Health, priority 2007, published 2019).
Where two headings read alike, the source gives them in different places.

How the values were obtained:
[1] = tested on: adenosine A2A receptor mRNA; assay: Northern blot of adenosine A2A receptor mRNA in human endothelial cells (HLMVEC, HCAEC); type: cell-based
Method: To assess the role of adenosine receptors in hypoxia, primary HLMVEC were exposed to air or hypoxia. For detecting mRNA, twenty-four hours post-transduction or treatment, cells were washed twice with Hank's balanced salt solution (HBSS) and harvested in GITC. RNA was purified using the CsCl method as described earlier (Riddle et al., Am J Physiol Lung Cell Mol Physiol 278, L407 (2000). 15 μg total RNA were resolved on 1% formaldehyde-agarose gels and transferred to nylon membranes. Probes used for northern blot were derived from human A2A cDNA and human A2B cDNA kindly provided by Dr. Marlene Jacobson, Merck Research Labs, West Point, Pa. The VEGF cDNA was obtained from the Harvard Proteomic Institute. The cDNA probes were labeled with [^32P]α-dCTP (ICN, Irvine, Calif.) by random priming and hybridized with the membrane for 18 hrs at 42° C. Membranes were then washed and autoradiographed. For loading controls, membranes were stripped of radioactive probe in a 2% glyceraldehyde solution at 80° C. and rehybridized with an end-labeled 28S rRNA oligonucleotide (Ambion, Austin, Tex.). The intensity of the radiolabeled bands was measured using a PhosphorImager running ImageQuant software (Molecular Dynamics, Sunnyvale, Calif.). The same Northern Blot procedure was used in subsequent examples, unless specifically noted otherwise. Protein expression was detected using standard Western Blot methods described in Ahmad, Free Radic Biol Med. 40(7):1108(2006).

A2A receptor mRNA = A2A receptor mRNA expression in mouse derived endothelial cells SVEC and MB114; type: cell-based
Method: Primary human lung microvascular endothelial cells (HLMVEC), primary human coronary artery endothelial cells (HCAEC), primary pulmonary artery endothelial cells (HPAEC) and endothelial cell growth medium were obtained from Cambrex (Walkersville, Md.). Dimethyloxlylglycine (DMOG) was obtained from Frontier Scientific, Inc (Logan, Utah). HLMVEC and HCAEC were cultured in endothelial cell basal medium (EBM-2) supplemented with VEGF, human FGF, human EGF, hydrocortisone, ascorbic acid, insulin-like growth factor-1, GA-1000 (gentamycin/amphotericin-B), 5% fetal bovine serum as per the supplier's protocol. Murine brain microvascular endothelial cells (MB114) and SV-40 transformed mouse endothelial cells (SVEC) were cultured in DMEM supplemented with 10% FBS, penicillin and streptomycin. The same culture conditions were used in subsequent examples, unless specifically noted otherwise.
To assess the role of adenosine receptors in hypoxia, primary HLMVEC were exposed to air or hypoxia. […] The intensity of the radiolabeled bands was measured using a PhosphorImager running ImageQuant software (Molecular Dynamics, Sunnyvale, Calif.). […] Protein expression was detected using standard Western Blot methods described in Ahmad, Free Radic Biol Med. 40(7):1108(2006).

HLMVEC [2] = assay: [3H]-thymidine incorporation proliferation assay in HLMVEC; type: cell-based, human; conditions: serum-starved, varying concentrations, 24 h
Method: Proliferation of HLMVEC was measured using [^3H]-thymidine incorporation. About 20,000 cells were plated in each well of a 24-well plate in endothelial cell complete medium. After 24 h, cells were washed once with HBSS and serum-starved in EBM-2 medium containing 1% FBS, hydrocortisone, ascorbic acid and GA-1000. After 24 h, cells were incubated with [^3H] thymidine (1 μCi/well) in the presence or absence of the adenosine A2A receptor agonist, CGS-21680, at varying concentrations for an additional 24 h. Subsequently, cells were washed twice with ice-cold PBS, precipitated with 0.1 N perchloric acid, and solubilized with 0.01 N NaOH containing 0.1% SDS prior to scintillation counting. Similarly, proliferation was also measured in cells transduced with Ad.A2A or Ad.LacZ at a multiplicity of infection of 10 pfu/cell.

HLMVEC [3] = assay: Matrigel tube formation (branching) assay in HLMVEC; type: cell-based, human
Method: Angiogenesis in HLMVEC was assessed using the Matrigel tube formation assay. Growth factor-reduced Matrigel matrix was coated onto 12-well plates and allowed to solidify at 37° C. for 30 min. HLMVEC's were then trypsinized and plated onto the Matrigel in the absence of growth factors or serum and incubated at 37° C. in a CO2 incubator. The A2A receptor agonist, CGS-21680, or the diluent control was included both in the Matrigel matrix and the overlying medium. Four hours after plating of cells, three randomly chosen fields from each well were photographed. Branch points were counted and plotted.

MB114 cells = assay: Tube formation of MB114 cells on collagen gel; type: cell-based, murine; conditions: 5 days
Method: MB114 cells (a microvascular endothelial cell line) were plated on collagen gel in presence of absence of the A2A receptor agonist CGS-21680 at a density of 80000 cells/well using a 24 well plate. After incubation for 5 days, photos from each well were taken randomly.

PI 3-kinase = PI 3-kinase activity in anti-p85 immunoprecipitate and phospho-Akt Western blot, HLMVEC; type: cell-based, human; conditions: 1 μM
Method: HLMVECs were cultured on 100 mm dishes. Cells were serum starved for 24 h before treating with 1 μM of CGS-21680 (Adenosine A2A receptor agonist) or the diluent control. Following treatment, lysates were prepared and −500 μg of protein was incubated with 20 μl of anti-p85-conjugated agarose (200 μg anti p85/200 μl agarose) for 2 h, after which the complex was precipitated. PI3-kinase activity was measured in the immunoprecipitate.

[4] = HLMVEC (donors) and HCAEC, Northern blot

In the case of `[Cl-].[Cl-].[Co+2]` [CoCl2], the “adenosine A2A receptor steady-state mRNA levels” value [1] is reported as “increases adenosine A2A receptor steady-state mRNA levels”.
In the case of `CC(=O)N(O)CCCCCNC(=O)CCC(=O)N(O)CCCCCNC(=O)CCC(=O)N(O)CCCCCN` [DFO], the “adenosine A2A receptor steady-state mRNA levels” value [1, 4] is reported as “increases adenosine A2A receptor steady-state mRNA levels”.
With `COC(=O)CNC(=O)C(=O)OC` [DMOG, Dimethyloxlylglycine] the “adenosine A2A receptor steady-state mRNA levels” value [1, 4] was “increases adenosine A2A receptor steady-state mRNA levels” and the “expression of A2A receptor mRNA levels” value (A2A receptor mRNA) was “neither hypoxia nor HIF stabilization by DMOG altered the expression of A2A receptor mRNA levels”.
`CCNC(=O)[C@H]1O[C@@H](n2cnc3c(N)nc(NCCc4ccc(CCC(=O)O)cc4)nc32)[C@H](O)[C@@H]1O` [CGS-21680] was tested, and the “cellular proliferation as assessed by 3[H]thymidine incorporation” value (HLMVEC [2]) was “increased cellular proliferation in a dose-dependent manner”, the “cell sprouting / formation of branches relative to control cells” value (HLMVEC [3]; Matrigel, 4 h) was “increased cell sprouting resulting in formation of branches” and the “increase in branching compared to the diluent control” value (HLMVEC [3]; Matrigel-matrix based assay, branch points 4 h after plating) was 37%. The tube formation (MB114 cells) was “promotes tube formation in a dose dependent manner”, the “expression of phosphorylated Akt (Western blot)” value (PI 3-kinase) was “increases expression of phosphorylated Akt” and the “PI3-kinase activity (phosphorylation of phosphoinositides, PIP3)” value (PI 3-kinase; serum starved 24 h) was “increased PI3-kinase activity”.
